The results in this text go back to US8927500B2, “Peptidomimetic macrocycles” (Aileron Therapeutics, Inc., priority 2012, dated 2015).

Where a SMILES comes first, the peptide text is derived from it. Bridges are numbered along the chain shown (N, C = ends). [ ]: non-standard residue; d: D form. Phe(4-COOH) = N[C@@H](Cc1ccc(C(=O)O)cc1)C(=O)O; R8 = C=CCCCCCC[C@@](C)(N)C(=O)O; Cba = N[C@@H](CC1CCC1)C(=O)O; S5 = C=CCCC[C@](C)(N)C(=O)O

The nature of data set [1]: MCF-7 xenograft study, body weight, deaths and tolerability. It counts as in vivo, mice. The source says: A negative control stapled peptide.
In data set [2] the test system is SJSA-1 cells. Briefly: Cell viability assay (MTT), SJSA-1. As to conditions: in words.
Data set [3] has as its system MCF-7 breast cancer xenograft. The data set can be described thus: MCF-7 breast cancer xenograft study, tumor growth inhibition. The note with it: 30 mg/kg 3×/wk iv.
Procedure: This formulation was prepared once for the duration of the study.
Each group was assigned to a different treatment regimen.
During the dosing period the mice were weighed and tumors measured 1-2 times per week.
Data set [4] can be described thus: Circular dichroism (CD) analysis of alpha-helicity. Format: physicochemical. (CD spectra are sensitive to the conformation of chiral molecules.)
Procedure: To assay the helicity of peptidomimetic macrocycles, the compounds are dissolved in an aqueous solution (e.g. 50 mM potassium phosphate solution at pH 7, or distilled H2O, to concentrations of 25-50 μM). Circular dichroism (CD) spectra are obtained on a spectropolarimeter (e.g., Jasco J-710) using standard measurement parameters (e.g. temperature, 20° C.; wavelength, 190-260 nm; step resolution, 0.5 nm; speed, 20 nm/sec; accumulations, 10; response, 1 sec; bandwidth, 1 nm; path length, 0.1 cm). […] A Peltier temperature controller was used to maintain temperature control of the optical cell. Results are expressed as mean molar ellipticity [0] […] Peptide concentrations were determined by amino acid analysis. Stock solutions of peptides were prepared in benign CD buffer (20 mM phosphoric acid, pH 2). The stocks were used to prepare peptide solutions of 0.05 mg/ml in either benign CD buffer or CD buffer with 50% trifluoroethanol (TFE) for analyses in a 10 mm pathlength cell. […] The average of six scans was reported.
In the next data set the target is MDM2 (Homo sapiens, UniProt Q00987). The data set can be described thus: Competitive fluorescence polarization assay for MDM2. Format: binding. As to conditions: competitive FP assay, MDM2. On the technique in general: Fluorescence polarisation rises when a labelled molecule tumbles more slowly, as on binding a larger partner.
For a further data set, the target named is T1, MDMX (Homo sapiens, UniProt O15151).
T1 sequence (O15151 1-125): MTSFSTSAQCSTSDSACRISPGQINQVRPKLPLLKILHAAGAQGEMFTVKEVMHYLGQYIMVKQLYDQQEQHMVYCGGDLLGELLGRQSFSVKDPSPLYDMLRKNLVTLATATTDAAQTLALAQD
The data set can be described thus: Competitive fluorescence polarization assay for MDMX. It counts as binding. As to conditions: competitive FP assay.

Another data set has as its system Caspase 3. Briefly: Caspase 3 detection assay in SJSA1 cells. Format: cell-based. As to conditions: 48 h, Caspase 3 activation over DMSO-treated cells.
The subject of data set [5] is SJSA-1 cells. The data set can be described thus: Cell lysis by peptidomimetic macrocycles (LDH release). It counts as cell-based. As to conditions: 1 h at 37C. In general terms: LDH leaks from cells whose membrane has failed.

Chain of MDM2 (Q00987 1-125): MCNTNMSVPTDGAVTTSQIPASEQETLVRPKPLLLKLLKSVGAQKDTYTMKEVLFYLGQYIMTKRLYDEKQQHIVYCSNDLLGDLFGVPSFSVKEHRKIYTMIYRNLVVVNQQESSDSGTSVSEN

With `CC[C@H](C)[C@H](NC(=O)[C@H](C)NC(=O)[C@H](C)NC(=O)[C@]1(C)CCC/C=C/CCCCCC[C@@](C)(NC(=O)[C@H](Cc2ccccc2)NC(=O)[C@@H](NC(=O)[C@H](CC(C)C)NC(C)=O)[C@@H](C)O)C(=O)N[C@@H](CCC(=O)O)C(=O)N[C@@H](Cc2ccc(C(=O)O)cc2)C(=O)N[C@@H](Cc2c[nH]c3ccccc23)C(=O)N[C@@H](C)C(=O)N[C@@H](CCC(N)=O)C(=O)N[C@@H](CC2CCC2)C(=O)N1)C(=O)N[C@H](C)C(N)=O` [SP249, Ac-L T F $er8 E F4coohWAQCba $e AA-I-a-NH2] (Ac-LTF[R8]E[Phe(4-COOH)]WAQ[Cba][S5]AAI[dA]-NH2; staple (E) 4-11), the “mice died during treatment” value in data set [1] ([…] 3×/wk iv, 10 mice per group) worked out at 4.
In the case of `CC(=O)N[C@@H](CC(C)C)C(=O)N[C@H](C(=O)N[C@@H](C)C(=O)N[C@]1(C)CCCCCCC=CCCC[C@@](C)(C(=O)N[C@@H](CO)C(=O)N[C@@H](C)C(=O)N[C@@H](C)C(N)=O)NC(=O)[C@H](CC2CCC2)NC(=O)[C@H](CCC(N)=O)NC(=O)[C@H](C)NC(=O)[C@H](Cc2c[nH]c3ccccc23)NC(=O)[C@H](Cc2ccc(O)cc2)NC(=O)[C@H](CCC(=O)O)NC1=O)[C@@H](C)O` [SP252], in data set [1] (30 mg/kg 3×/wk iv), the “% BW Change” value is on record as “+3.3%”, the “No. with ≧10% BW Loss” value is 0/10 and the “No. with ≧20% BW Loss or death” value was 0/10. Further, in data set [1] (30 mg/kg 3×/wk iv, in words), the “tolerability of dosing regimen” value was “well-tolerated”. Also, the “activity in the SJSA-1 in vitro viability assay” value in the data set with SJSA-1 cells [2] was “no activity”. Besides, the “activity in in vitro assays” value in the data set with SJSA-1 cells [2] (in vitro assays not specified) is listed as “no appreciable activity”. The “TGI by Day 32” value in data set [3] came out at 88%.
As a reminder, the IC50 is the midpoint of a concentration-inhibition curve. One may read the Ki as the dissociation constant of the complex between target and ligand, obtained from inhibition or displacement. Consider `CC[C@H](C)[C@H](NC(=O)[C@H](C)NC(=O)[C@H](C)NC(=O)[C@]1(C)CCC/C=C/CCCCCC[C@@](C)(NC(=O)[C@H](Cc2ccccc2)NC(=O)[C@@H](NC(=O)[C@H](CC(C)C)NC(C)=O)[C@@H](C)O)C(=O)N[C@@H](C)C(=O)N[C@@H](Cc2ccc(O)cc2)C(=O)N[C@@H](Cc2c[nH]c3ccccc23)C(=O)N[C@@H](C)C(=O)N[C@@H](CCC(N)=O)C(=O)N[C@@H](CC(C)C)C(=O)N1)C(=O)N[C@H](C)C(N)=O` [compound 71], for which the “% Helix 50% TFE compared to 50% TFE parent (CD)” value in data set [4] (50% TFE) worked out at 123.7%. Further, the “Molar Ellipticity 50% TFE (222 in 50% TFE)” value in data set [4] (CD buffer with 50% TFE, 222 nm, 4° C.) is −17957 deg cm2 dmol-1. In addition, the “Molar Ellipticity Benign (222 in 0% TFE)” value in data set [4] (benign CD buffer pH 2, 0% TFE, 222 nm, 4° C.) is given as −121.2 deg cm2 dmol-1. Besides, the “% Helix benign compared to 50% TFE parent (CD)” value in data set [4] (benign buffer) was determined as 0.8%. Also, the “Molar Ellipticity TFE-Molar Ellipticity Benign” value in data set [4] (difference 50% TFE minus benign) was −17835.9 deg cm2 dmol-1. Also, the 50% inhibitory concentration (IC50) was in the range of 10 to 100 nM at MDM2 (read-out: IC50 (MDM2)) and 100 to 1000 nM at MDMX (read-out: IC50 (MDMX)). Besides, the Ki at MDM2 (read-out: Ki (MDM2)) is under 10 nM; at MDMX (read-out: Ki (MDMX)), 10 to 100 nM. Moreover, the “caspase 0.3 uM” value in the data set with Caspase 3 (0.3 uM peptide) came to 0.95. Besides, the “caspase 1 uM” value in the data set with Caspase 3 (1 uM peptide) is reported as 1.02. Moreover, in the data set with Caspase 3 (3 uM peptide), the “caspase 3 uM” value came out at 3.68. Also, the “caspase 30 uM” value in the data set with Caspase 3 (30 uM peptide) turned out to be 23.52. Also, the “6.25 uM % Lysed cells (1 h LDH)” value with SJSA-1 cells [5] (6.25 uM) was found to be 0%. Besides, the “25 uM % Lysed cells (1 h LDH)” value in the data set on SJSA-1 cells [5] (25 uM) amounted to 0%. Further, the “50 uM % Lysed cells (1 h LDH)” value with SJSA-1 cells [5] (50 uM) is given as 0%.
